# Source: US12274703B2, “Compositions and methods of treatment for neurological disorders comprising a dementia” (Gliapharm SA, priority 2017, dated 2025)
# Like-named read-outs stand apart in the source and are kept apart here.
# Assays:
# [1] = tested on: primary astrocytes; assay: High throughput screening for lactate secretion: acidification of extracellular medium (SNARF5); assay type: cell-based, mouse; parameters: key to Score / HTS Score (lactate) / HTS Score (SNARF5) / Score_SNARF: fraction of positive control activity (positive control = 100%); details: for Score_SNARF: primary screening confirmation (SNARF5); for Score / HTS Score (SNARF5) / Emax at 10 µM: 10 uM, 90 min; for Emax at 10 µM: Mus musculus, Astrocyte, 1.5 h
# In short: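 Mouse cortical astrocytes (DIV17) stimulated 90 min at 10 uM compound (1% DMSO) in low-bicarbonate DMEM, 5 mM glucose, with SNARF-5F; extracellular acidification read as 630/580 nm emission ratio (exc 480 nm). Duplicates; score as % of CCCP 2 uM control, hits >3× summed SD above DMSO.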
# [2] = tested on: astrocytes; assay: MTT viability assay; assay type: cell-based; details: Mus musculus, Astrocyte; CDC54K hits; cellular toxicity, 0-200 uM
# Protocol: (§1) Primary cultures of cerebrocortical astrocytes were obtained from 1-2-day-old OF1 mouse pups (Charles River Laboratories). Briefly, cortices were isolated and minced in small pieces under a dissecting microscope. The cells were incubated for 30 min at 37° C. in a solution containing 20 U/ml of papain enzyme (Worthington Biochemical), L-cysteine 1 mM (Sigma), and 10 kU/ml DNase I (Worthington Biochemical) for an enzymatic dissociation. Papain activity was stopped by the addition of fetal calf serum (FCS) to the solution, and a single-cell suspension was then obtained by mechanical dissociation, which consisted in cells trituration in a DMEM (D7777, Sigma-Aldrich) medium (supplemented with 44 mm NaHCO3, and 10 ml/L antibiotic/antimycotic solution) containing 10% FCS. The cells were seeded at an average density of 6×10^4 cells/cm^2 in poly-D-lysine-coated 96, 12 or 6-well culture plates, depending on their use, and incubated at 37° C. in a humidified atmosphere containing 5% CO2/95% air. Culture medium was renewed twice per week. Cells were stimulated and harvested between DIV14 and DIV17, when confluence and cell growth were optimal.
# For cell toxicity determination, astrocytes in 96-well plates were stimulated 24 h (37° C. 5% CO2/95% air) with a gradient ranging from 0.1 to 200 μM of tested compounds. After stimulation, 5 mg/ml thiazol blue tetrazolium bromide (MTT, Sigma-Aldrich) in warm D5030 complete medium was added to each well, and cells were incubated for 4 h at 37° C. (5% CO2). The medium was then removed by aspiration, and the reaction was stopped by the addition of 50 μl DMSO per well.
# The amount of reduced MTT (formazan) solubilized in DMSO was then determined spectrophotometrically using absorbance at 570 nm (Safire 2; Tecan).
# MTT cellular viability assay was performed on astrocytes exposed to molecules from the Prestwick library (Prestwick hits; concentrations ranging from 0 uM to 200 uM).
# MTT cellular viability assay was performed on astrocytes exposed to CDC54K hits (concentrations ranging from 0 uM to 200 uM).
# [3] = tested on: astrocytes; assay: Production of H2O2 (mitochondrial activity); assay type: cell-based; details: Mus musculus, Astrocyte, 1.5 h; CDC54K hits; 0-200 uM, 90 min
# Protocol: as §1
# Hydrogene peroxide (H2O2) released in the supernatant is detected enzymatically with Amplex red (Zhou, Diwu et al. 1997). Oxidation of Amplex red is catalysed by the horseradish peroxidase in presence of H2O2 into highly fluorescent resorufin. Fluorescence measure is read at 545 nm extinction, 590 nm emission. The amount of H2O2 was expressed relatively to the proteins content extracted from the cells in culture. […]
# Mitochondrial respiration in astrocytes was measured through production of H2O2 at 90 min after stimulation with CDC54K hits (ranging from 0 to 200 uM).
# [4] = tested on: astrocytes; assay: Extracellular lactate quantification; assay type: cell-based, mouse; details: for Score_LACTATE: Appendix I, secondary screening, dosage of extracellular lactate; for EC50: Mus musculus, Astrocyte
# In short: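 Primary cortical astrocytes from 1–2-day-old OF1 mouse pups, used at DIV14–17, stimulated 90 min at 37 °C in D5030 with 5 mM glucose, compounds 0–100 μM. Extracellular L-lactate measured enzymatically (LDH/NAD, pH 10, 1 h 37 °C) by NADH fluorescence (ex 340/em 450) against L-lactate standard curve.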
# [5] = Appendix I, primary screening, relative to positive control
# [6] = CDC54K hits, relative to positive control CCCP 2 uM
# [7] = 1.5 h, CDC54K hits, 0-100 uM, 90 min, read-out: Lactate EC50
# [8] = Appendix I, primary screening, relative to positive control, read-out: Score
# [9] = CDC54K hits, relative to positive control CCCP 2 uM, read-out: HTS Score (SNARF5)
Compound,Score_SNARF ([1]; Appendix I),"Score [1, 5]","HTS Score (SNARF5) [1, 6]",IC50 [2] [µM],IC50 [3] [µM],Score_LACTATE [4],"EC50 [4, 7] [µM]","Emax at 10 µM [1, 8] [%]","Emax at 10 µM [1, 9] [%]",Score Lact. ([4]; Appendix II),"EC50 ([4]; Appendix II, lactate secretion, read-out: EC50) [µM]"
Cc1ccccc1NC(=O)C1CCCN(c2ncnc3oc(C)c(C)c23)C1 (stereo not shown) [F228-0422],0.7702,1.057,1.058,> 200,> 200,0.6364,0.5,,,,
COc1ccccc1[N+]1=C2CCCCCN2C(O)(c2ccc(C)cc2)C1 (stereo not shown) [K404-0834],,,,150,> 200,,1.8,112,112,,
CCc1nc(-c2csc(S(=O)(=O)NCc3ccc4c(c3)OCO4)c2)no1 [L287-0468],0.6592,0.5971,0.597,> 200,> 200,0.6179,7.9,,,,
CCn1nccc1-c1csc(S(=O)(=O)Nc2ccc(Cl)cc2F)c1 [L924-1031],0.8713,0.9286,0.929,> 200,48.6,1.632,25.3,,,,
CC(=O)N1CCc2sc(S(=O)(=O)N3CCN(c4ccccc4C)CC3)cc2C1 [P025-0159],0.8007,0.9535,0.953,> 200,> 200,0.9232,8.7,,,,
COc1ccc(Nc2nc(N3CCOCC3)c3ccccc3n2)cc1.Cl [T0508-5190],,,,75,185,,3.1,45.9,45.9,,
c1ccc2c(c1)CCN(c1ncnc3sccc13)C2 [T0517-8250],,,,140,> 200,,3,95.7,95.7,,
N#Cc1ccc(C(=O)N2CCC(Nc3ncnc4c3CCC4)C2)cc1 (stereo not shown) [T636-2387],,,0.445,> 200,> 200,,11.5,44.5,,0.30,6.83
COc1cc(C)c(Cl)cc1S(=O)(=O)NCc1ccncc1 [T5580243],0.8565,0.8528,0.853,> 200,> 200,0.7229,11,,,,
O=C1CCCN1c1ccc(S(=O)(=O)Nc2cccc(/C=C/c3ccccn3)c2)cc1 [T5644989],0.8385,0.6796,0.68,> 200,> 200,0.7859,7.9,,,,
O=S(=O)(Nc1cc(F)cc(F)c1)c1ccc2ccccc2c1 [T5884038],,,,70.5,> 200,,12.2,72.1,72.1,,
Cc1nc2ccc(NS(=O)(=O)c3cccc(F)c3)cc2s1 [T6937001],0.8557,0.8094,0.809,> 200,> 200,0.9088,11.5,,,,
